Where two headings read alike, the source gives them in different places.
What was measured:
[1] = system: ADP-induced platelet aggregation; test: Inhibitory activity to the ADP-induced platelet aggregation measured by the platelet-counting-method, rat PRP; format: cell-based; details: platelet counting (Coulter Counter)
Experimental: (b) Inhibitory activity to the ADP-induced platelet aggregation measured by the platelet-counting-method.
The test drug was dissolved in Na-isotonic 0.02 M Tris-HCl buffer (pH 7.4) containing 1% of dimethylformamide and to 1.5 ml of the test drug solution was added 0.5 ml of the rat-PRP. The mixture was incubated at 37° C. for one minute, followed by the addition of 1 ml of 5×10^-5 M-ADP-physiological saline, and further incubated for 45 seconds. To the solvent as mentioned above was added rat-PRP of the same volume as above. The mixture was incubated at 37° C. for one minute, which was used as the control preparation.
The rate of non-aggregation (inhibitory rate of aggregation) was assayed against the control by counting the number of the platelets in each sample as a single platelet by means of Coulter Counter and by determining the number of the platelets after the addition of ADP as non-aggregated platelets.

[2] = system: primary aggregation of platelets by ADP; test: Inhibitory activity to the (primary) platelet aggregation induced by ADP, aggregation meter, rat PRP; format: cell-based; details: average of 5 cases
Experimental: (a) Inhibitory activity to the platelet aggregation induced by ADP (adenosine diphosphate)
(§1) With a siliconized injection syringe wetted with heparin, a blood sample was taken from the descending artery of a rat and centrifuged at 4° C. and 1,000 r.p.m. for 10 minutes to obtain a platelet-rich plasma (PRP). The test drug solutions were prepared as follows. The test drug was dissolved in 0.02 M Tris-HCl buffer containing 1% of dimethylformamide and isotonicated with sodium (pH 7.4). To 0.4 ml of the above PRP was added 3.0 ml of the test drug solution, followed by the addition of 0.1 ml of 10^-4 M ADP. The resultant aggregation of platelets was measured with an aggregation meter [Nippon Bunko Medical K.K.]. The activity of the test drug was first assayed by determining the primary aggregation inhibitory effect in terms of inhibition rate (%) in relation to the maximum light transmittance of control PRP which is altered by ADP.
The inhibition rates shown are each an average of 5 cases.

[3] = system: platelet aggregation by ADP; test: Platelet aggregation inhibitory activity after oral administration to rats (blood sampled one hour after dosing); format: in vivo; details: rat
Experimental: as §1
(2) The platelet aggregation inhibitory activity of Compound (I) (oral administration)
In one hour after oral administration of the test drug to rats, a blood sample was taken from each of the tested rats and the inhibition rate was assayed in accordance with the procedure as mentioned above (1)-a).

[4] = system: thrombocyte (platelet) aggregation; test: Inhibition activity of platelet aggregation in mammalian blood (general statement)
[5] = system: mice; details: mouse, in vivo
Excerpt: (3) The toxicity of compound (I)

CC(=O)Oc1ccccc1C(=O)O [Aspirin]
Rate of inhibition of the aggregation ([1]; 0.5 × 10^-4 mol. conc.): 6.51 ± 1.86% | Rate of inhibition of the aggregation ([1]; 1 × 10^-4 mol. conc.): -15.81 ± 5.65% | Rate of inhibition of the aggregation ([1]; 5 × 10^-4 mol. conc.): -7.11 ± 0.98% | Rate of inhibition of the primary aggregation of platelets by ADP ([2]; 1.0 × 10^-4 mol. conc.): 10.6% | Rate of inhibition of the primary aggregation of platelets by ADP ([2]; 2.5 × 10^-4 mol. conc.): 28.8% | Rate of inhibition of the primary aggregation of platelets by ADP ([2]; 5.0 × 10^-4 mol. conc.): 60.4% | Rate of inhibition of the platelet aggregation by ADP ([3]; 50 mg/kg body weight): 0% | Rate of inhibition of the platelet aggregation by ADP ([3]; 100 mg/kg body weight): 4.3%

CCOC(=O)COc1ccc2c(C)c(CCN(CC)CC)c(=O)oc2c1 [Carbochromen]
Rate of inhibition of the aggregation ([1]; 0.5 × 10^-4 mol. conc.): 5.12 ± 2.20% | Rate of inhibition of the aggregation ([1]; 1 × 10^-4 mol. conc.): 12.75 ± 2.26% | Rate of inhibition of the aggregation ([1]; 5 × 10^-4 mol. conc.): 15.95 ± 1.87%

O=C1c2ccccc2SC12CC2 [Compound (I), 3-oxo-2,3-dihydro[1]benzothiophene-2-spirocyclopropane]
Rate of inhibition of the aggregation ([1]; 0.5 × 10^-4 mol. conc.): 13.02 ± 2.20% | Rate of inhibition of the aggregation ([1]; 1 × 10^-4 mol. conc.): 16.09 ± 3.14% | Rate of inhibition of the aggregation ([1]; 5 × 10^-4 mol. conc.): 80.98 ± 2.92% | inhibition activity of thrombocyte (platelet) aggregation [4]: strong inhibition activity | Rate of inhibition of the primary aggregation of platelets by ADP ([2]; 0.5 × 10^-4 mol. conc.): 10.9% | Rate of inhibition of the primary aggregation of platelets by ADP ([2]; 0.75 × 10^-4 mol. conc.): 52.4% | Rate of inhibition of the primary aggregation of platelets by ADP ([2]; 1.0 × 10^-4 mol. conc.): 82.3% | Rate of inhibition of the primary aggregation of platelets by ADP ([2]; 2.5 × 10^-4 mol. conc.): 96.9% | Rate of inhibition of the primary aggregation of platelets by ADP ([2]; 5.0 × 10^-4 mol. conc.): 97.7% | toxic reactions ([5]; ip, 100 mg/kg): nor was any toxic reaction noted | toxic reactions ([5]; po, 300 mg/kg): No toxic reactions were elicited | Rate of inhibition of the platelet aggregation by ADP ([3]; 5 mg/kg body weight): -3.6% | Rate of inhibition of the platelet aggregation by ADP ([3]; 10 mg/kg body weight): 12.7% | Rate of inhibition of the platelet aggregation by ADP ([3]; 25 mg/kg body weight): 20.0% | Rate of inhibition of the platelet aggregation by ADP ([3]; 50 mg/kg body weight): 21.9%

COc1ccc2c(c1)c(CC(=O)O)c(C)n2C(=O)c1ccc(Cl)cc1 [Indomethacin]
Rate of inhibition of the aggregation ([1]; 0.5 × 10^-4 mol. conc.): 8.18 ± 2.21% | Rate of inhibition of the aggregation ([1]; 1 × 10^-4 mol. conc.): 0.85 ± 0.20% | Rate of inhibition of the aggregation ([1]; 5 × 10^-4 mol. conc.): 64.66 ± 1.76% | Rate of inhibition of the primary aggregation of platelets by ADP ([2]; 1.0 × 10^-4 mol. conc.): 8.0% | Rate of inhibition of the primary aggregation of platelets by ADP ([2]; 2.5 × 10^-4 mol. conc.): 31.5% | Rate of inhibition of the primary aggregation of platelets by ADP ([2]; 5.0 × 10^-4 mol. conc.): 71.4% | Rate of inhibition of the platelet aggregation by ADP ([3]; 5 mg/kg body weight): 12.5% | Rate of inhibition of the platelet aggregation by ADP ([3]; 10 mg/kg body weight): 12.4% | Rate of inhibition of the platelet aggregation by ADP ([3]; 25 mg/kg body weight): 11.2%

CC(C(=O)O)c1cccc(C(=O)c2ccccc2)c1 (centres unmarked) [Ketoprofen]
Rate of inhibition of the primary aggregation of platelets by ADP ([2]; 1.0 × 10^-4 mol. conc.): 19.6% | Rate of inhibition of the primary aggregation of platelets by ADP ([2]; 2.5 × 10^-4 mol. conc.): 36.0% | Rate of inhibition of the primary aggregation of platelets by ADP ([2]; 5.0 × 10^-4 mol. conc.): 71.5% | Rate of inhibition of the platelet aggregation by ADP ([3]; 10 mg/kg body weight): 7.2% | Rate of inhibition of the platelet aggregation by ADP ([3]; 25 mg/kg body weight): 13.5% | Rate of inhibition of the platelet aggregation by ADP ([3]; 50 mg/kg body weight): 18.6%

— patent US4304784A, “Composition and method for inhibiting platelet aggregation” (Takeda Chemical Industries, Ltd., priority 1978, dated 1981)
